Laboratory results as given in publication PMC9027957, “Interspecies Comparisons of the Effects of Potential Antiviral 3-Amidinophenylalanine Derivatives on Cytochrome P450 1A2 Isoenzyme” (Veterinary Sciences, 2022).

Tests used:
SARS-CoV-2 = tested on: SARS-CoV-2; design: method as in PMID 32703818; settings: infected human airway epithelial Calu 3 cells, dose-dependent; cited from earlier work
CYP1A2 [1] = biological target: T1, CYP1A2 (Macaca fascicularis, UniProt O77809); settings: 2 h, 50 µM
T1 sequence (O77809 1-516): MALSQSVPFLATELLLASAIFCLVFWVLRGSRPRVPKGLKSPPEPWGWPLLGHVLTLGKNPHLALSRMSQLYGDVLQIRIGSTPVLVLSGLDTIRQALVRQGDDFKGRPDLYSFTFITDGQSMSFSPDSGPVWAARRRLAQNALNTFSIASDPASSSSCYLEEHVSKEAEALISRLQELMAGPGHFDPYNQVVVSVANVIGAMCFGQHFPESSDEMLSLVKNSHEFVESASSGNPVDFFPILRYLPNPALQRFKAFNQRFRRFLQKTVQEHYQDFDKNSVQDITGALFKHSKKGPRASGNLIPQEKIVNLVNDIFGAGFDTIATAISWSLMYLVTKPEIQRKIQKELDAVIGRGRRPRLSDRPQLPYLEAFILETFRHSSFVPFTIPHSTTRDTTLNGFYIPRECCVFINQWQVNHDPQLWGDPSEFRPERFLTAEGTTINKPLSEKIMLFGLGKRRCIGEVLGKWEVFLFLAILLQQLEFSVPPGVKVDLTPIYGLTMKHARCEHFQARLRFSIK
Experimental: For the measurements of CYP1A2 activities, hepatocytes were grown on 24-well collagen-coated membrane inserts (Costar Transwell-PTFE membrane, 6.5 mm, pore size: 0.4 µm, Merck, Darmstadt, Germany). […] The determination of the CYP1A2 activities were performed using the P450-Glo CYP450 Assay (Promega, Madison, WI, USA) according to the manufacturer’s instructions.

[2] = 60 min microsomal stability assay (UPLC-MS/MS), beagle liver microsomes; assay type: in vitro ADME; settings: 50 µM
Experimental: Rat, beagle (Gibco, Biocenter, Szeged, Hungary), and cynomolgus monkey (Primacyt, Schwerin, Germany) liver microsomes were exposed to inhibitors MI-432, MI-463, MI-482, or MI-1900 at 50 µM for 60 min. The final microsomal protein concentration in the suspension was 0.6 mg/mL in each case. The reaction buffer (100 mM phosphate buffer pH 7.4) also contained 1 mM nicotinamide adenine dinucleotide phosphate (NADPH), 5 mM MgCl2, 10 mM glucose-6-phosphate (G6P), and 2 IU/mL glucose-6-phosphate dehydrogenase (G6PD). The reaction was terminated by the addition of ice-cold acetonitrile (ACN) with the ratio of sample ACN volume = 1:2. The precipitated protein was removed by centrifugation at 10,000× g for 10 min, and the supernatants were used for subsequent analyses.
The determination of all analytes was carried out using an UPLC/MS/MS system, which consisted of an HPLC apparatus (SCIEX ExionLC^TM UPLC, Framigham, MA, USA) and a SCIEX Qtrap 4500 triple-quadrupole mass spectrometer (Framigham, MA, USA) equipped with a SCIEX Turbo V electrospray ionization source. The HPLC columns used were LiChrospher RP Select B (125 × 4.0 mm, 5.0 μm, C8 stationary phase). Next, 0.1% trifluoroacetic acid in ultra-purified water (A) and acetonitrile (B) were used as mobile phases for chromatographic separations applying a gradient elution. The HPLC gradient program was the following: between 0 and 10 min, a ratio of 70% A and 30% B; from 10 to 20 min, linearly increasing to a ratio of 50% A and 50% B; from 20 to 21 min, maintained at a ratio of 50% A and 50% B; from 21 to 22 min, linearly decreasing back to a ratio of 70% A and 30% B; and between 22 min and 30 min, maintained at a ratio of 70% A and 30% B. The run time was 30 min, the column temperature was adjusted to 35 °C, and the flow rate was 1 mL/min.

CYP1A2 [3] = biological target: T2, CYP1A2 (Rattus norvegicus, UniProt P04799); assay: CYP1A2 fluorometric activity assay in rat hepatic microsomes; assay type: in vitro ADME, rat (Sprague–Dawley); design: Rat (Sprague–Dawley) and beagle (Gibco, Biocenter, Szeged, Hungary, protein concentration: 20 mg/mL) hepatic microsomal preparations; tissue Gibco, Biocenter, Szeged, Hungary; host or cells: liver (hepatic microsomes), Sprague-Dawley rat
T2 sequence (P04799 1-513): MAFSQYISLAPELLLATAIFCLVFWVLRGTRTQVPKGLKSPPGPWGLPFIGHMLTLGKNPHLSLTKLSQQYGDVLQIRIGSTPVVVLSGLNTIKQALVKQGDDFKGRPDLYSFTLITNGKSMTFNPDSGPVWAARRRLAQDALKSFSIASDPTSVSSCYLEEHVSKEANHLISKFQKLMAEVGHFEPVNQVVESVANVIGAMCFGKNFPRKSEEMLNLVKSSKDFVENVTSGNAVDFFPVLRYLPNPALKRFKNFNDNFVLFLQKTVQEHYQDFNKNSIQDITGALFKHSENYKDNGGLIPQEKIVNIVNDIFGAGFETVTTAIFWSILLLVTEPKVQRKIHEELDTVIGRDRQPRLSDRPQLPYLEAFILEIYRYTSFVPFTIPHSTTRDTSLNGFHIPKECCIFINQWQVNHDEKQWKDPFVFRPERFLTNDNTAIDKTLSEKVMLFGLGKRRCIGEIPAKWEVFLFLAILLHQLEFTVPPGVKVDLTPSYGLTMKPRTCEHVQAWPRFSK
Experimental: The Biovision CYP assay (BioVision, Inc., Kampenhout, Belgium) utilizes a non-fluorescent CYP1A2 substrate capable of transforming into a highly fluorescent metabolite, which can be detected in the visible range. α-naphthoflavone was used as a CYP1A2 reference inhibitor at 6 µM during the experiments. Rat (Sprague–Dawley) and beagle (Gibco, Biocenter, Szeged, Hungary, protein concentration: 20 mg/mL) hepatic microsomal preparations were prepared separately by mixing 25 µL of the obtained rat or beagle microsomal suspension with 2425 µL assay buffer and with 50 µL NADPH generating system (100×). In the case of the cynomolgus monkey microsomal suspension (Primacyt, Schwerin, Germany, protein concentration: 5 mg/mL), the following volumes were applied: in addition to 100 µL of monkey microsomal suspension, the amount of assay buffer and the NADPH generating system were adjusted in order to ensure the original ratios of these components to reach a final volume of 2500 µL. Rat, beagle, and cynomolgus monkey microsomal suspension aliquots (50 µL) were treated with the protease inhibitor 20 µL, 0–1000 µM), the reference compound α-naphthoflavone (20 µL, 30 µM), or the assay buffer without test compounds (20 µL, background control) for 15 min at 37 °C. After incubation, 30 µL of the appropriate CYP1A2 substrate/NADP+ mixture was added to each well, yielding a final reaction volume of 100 µL/well. The protein contents of the obtained microsomes were analysed using bicinchoninic acid protein assay kit (Pierce BCA kit, Thermo Fisher Scientific, Waltham, MA, USA). […] The fluorescence intensities were measured with a fluorometer (Victor X2 2030, Perkin Elmer, Waltham, MA, USA), using λEx/Em = 406/468 nm.

Compound	SARS-CoV-2 titers (SARS-CoV-2)	CYP1A2 activity in cynomolgus monkey hepatocytes (CYP1A2 [1])	depletion percentage of the parent compound ([2]; beagle microsomes, 0.6 mg/mL protein, mean ± SD (n = 3)) [%]	rat hepatic microsomal CYP1A2 isoenzyme activity (CYP1A2 [3]; inhibitors at 50 µM, 15 min at 37 °C, vs untreated control)	depletion percentage of the parent compound ([2]; beagle, dog, pH 7.4) [%]	rat hepatic microsomal CYP1A2 isoenzyme activity (CYP1A2 [3]; Sprague-Dawley, rat, 15 min, 50 µM)
COc1ccc(-c2cccc(S(=O)(=O)N[C@@H](Cc3cccc(C(=N)N)c3)C(=O)N3CCN(C(=O)NC4CCCCC4)CC3)c2)c(OC)c1 [MI-1900]	reduced	significantly decrease the activity of CYP1A2	23.7 ± 11.1	suppressed	–	–
N=C(N)c1cccc(C[C@H](NS(=O)(=O)c2cccc(-c3ccc(Cl)cc3Cl)c2)C(=O)N2CCC(CCN)CC2)c1 [MI-432]	reduced	significantly decrease the activity of CYP1A2	–	–	23.8 ± 7	did not inhibit CYP1A2 function
